In ChEMBL document CHEMBL4052768, “Discovery of novel 2-(3-phenylpiperazin-1-yl)-pyrimidin-4-ones as glycogen synthase kinase-3β inhibitors” (Bioorg Med Chem Lett, 2017):
pIC50: −log10 of the molar value.

Experiments:
[1] = biological target: Glycogen synthase kinase-3 beta (Homo sapiens, UniProt P49841); assay: Inhibition of recombinant human GSK-3beta using prephosphorylated GS-1 peptide as substrate after 1 hr in presence of [gamma-32P]ATP by liquid scintillation spectrometric method
[2] = biological target: T1, Cytochrome P450 2D6 (Homo sapiens, UniProt P10635); assay: Inhibition of recombinant human CYP2D6; type: ADME
T1 sequence (P10635 whole entry): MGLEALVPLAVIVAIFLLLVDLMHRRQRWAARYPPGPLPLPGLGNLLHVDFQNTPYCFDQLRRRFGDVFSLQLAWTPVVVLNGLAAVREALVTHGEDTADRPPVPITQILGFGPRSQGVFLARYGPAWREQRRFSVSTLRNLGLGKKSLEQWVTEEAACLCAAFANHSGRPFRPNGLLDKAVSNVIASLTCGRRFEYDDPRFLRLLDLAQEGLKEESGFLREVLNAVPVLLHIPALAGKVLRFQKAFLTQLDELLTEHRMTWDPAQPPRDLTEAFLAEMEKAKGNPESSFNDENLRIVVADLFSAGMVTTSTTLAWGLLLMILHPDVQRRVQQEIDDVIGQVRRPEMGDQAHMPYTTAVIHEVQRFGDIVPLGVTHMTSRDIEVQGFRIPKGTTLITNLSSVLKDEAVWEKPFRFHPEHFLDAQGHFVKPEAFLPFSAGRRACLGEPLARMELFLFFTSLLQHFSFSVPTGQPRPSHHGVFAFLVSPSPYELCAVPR

[3] = biological target: T2, Cytochrome P450 1A2 (Homo sapiens, UniProt P05177); assay: Inhibition of CYP1A2 in human liver microsomes; type: ADME
T2 sequence (P05177 whole entry): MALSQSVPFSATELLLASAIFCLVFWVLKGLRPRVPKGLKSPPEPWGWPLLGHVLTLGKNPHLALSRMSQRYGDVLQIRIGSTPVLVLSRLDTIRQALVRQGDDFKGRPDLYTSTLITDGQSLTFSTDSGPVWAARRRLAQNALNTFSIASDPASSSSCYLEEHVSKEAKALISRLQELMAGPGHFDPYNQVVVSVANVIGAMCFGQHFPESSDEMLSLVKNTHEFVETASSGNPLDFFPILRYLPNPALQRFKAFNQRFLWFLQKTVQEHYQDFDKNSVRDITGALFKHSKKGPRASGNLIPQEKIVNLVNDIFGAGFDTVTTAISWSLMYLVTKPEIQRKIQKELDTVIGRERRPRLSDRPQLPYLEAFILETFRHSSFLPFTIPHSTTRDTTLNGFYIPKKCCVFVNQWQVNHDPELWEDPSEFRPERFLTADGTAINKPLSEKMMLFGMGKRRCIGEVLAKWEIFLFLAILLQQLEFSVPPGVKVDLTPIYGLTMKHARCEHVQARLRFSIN

[4] = biological target: T3, Cytochrome P450 3A4 (Homo sapiens, UniProt P08684); assay: Inhibition of recombinant human CYP3A4; type: ADME
T3 sequence (P08684 whole entry): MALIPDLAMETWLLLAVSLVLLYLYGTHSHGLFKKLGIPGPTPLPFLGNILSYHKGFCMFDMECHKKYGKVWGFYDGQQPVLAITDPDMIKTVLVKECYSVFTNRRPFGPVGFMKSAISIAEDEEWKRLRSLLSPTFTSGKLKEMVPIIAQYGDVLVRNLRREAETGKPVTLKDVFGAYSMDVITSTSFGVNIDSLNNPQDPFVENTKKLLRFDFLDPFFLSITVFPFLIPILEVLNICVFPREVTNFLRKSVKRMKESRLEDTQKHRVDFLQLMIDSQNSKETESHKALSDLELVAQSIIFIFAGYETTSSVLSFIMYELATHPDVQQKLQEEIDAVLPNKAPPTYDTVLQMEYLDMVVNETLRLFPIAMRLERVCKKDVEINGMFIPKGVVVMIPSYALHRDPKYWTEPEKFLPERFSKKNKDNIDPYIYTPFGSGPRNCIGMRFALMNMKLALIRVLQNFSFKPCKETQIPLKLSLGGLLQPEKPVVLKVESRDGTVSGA

[5] = biological target: T2, Cytochrome P450 1A2; assay: Inhibition of recombinant human CYP1A2; type: ADME
[6] = biological target: T3, Cytochrome P450 3A4; assay: Inhibition of CYP3A4 in human liver microsomes; type: ADME
[7] = biological target: T1, Cytochrome P450 2D6; assay: Inhibition of CYP2D6 in human liver microsomes; type: ADME

Glycogen synthase kinase-3 beta, sequence (P49841 whole entry): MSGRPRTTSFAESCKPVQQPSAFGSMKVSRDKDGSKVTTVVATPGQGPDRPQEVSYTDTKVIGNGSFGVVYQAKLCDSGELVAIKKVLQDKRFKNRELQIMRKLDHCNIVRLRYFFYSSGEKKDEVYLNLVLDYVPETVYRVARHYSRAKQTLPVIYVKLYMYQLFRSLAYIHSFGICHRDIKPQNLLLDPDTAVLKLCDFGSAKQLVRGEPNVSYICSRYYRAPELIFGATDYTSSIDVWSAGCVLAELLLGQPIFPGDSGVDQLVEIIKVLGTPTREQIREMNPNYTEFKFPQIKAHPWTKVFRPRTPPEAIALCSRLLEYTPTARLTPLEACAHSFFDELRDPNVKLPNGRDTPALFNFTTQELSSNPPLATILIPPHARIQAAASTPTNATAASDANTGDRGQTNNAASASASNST

SMILES | pIC50 [1] | other results
Cn1c(N2CCN[C@@H](c3ccc(Cl)cc3)C2)nc(-c2ccncc2)cc1=O | 7.96 | –
COc1ccc(C2CN(c3nc(-c4ccncc4)cc(=O)n3C)CCN2)cc1OC (stereo unspecified) | 8.28 | –
COc1cc(F)ccc1C1CN(c2nc(-c3ccncc3)cc(=O)n2C)CCN1 (racemic) | 9.05 | pIC50 [2]: 5.74; pIC50 [3]: < 4.28; pIC50 [4]: < 4.28
COc1ccc(C2CN(c3nc(-c4ccncn4)cc(=O)n3C)CCN2)cc1 (racemic) | 8.46 | –
COc1cc(F)ccc1C1CN(c2nc(-c3ccncn3)cc(=O)n2C)CCN1 (single isomer, unassigned; Enantiomer-1) | 7.36 | pIC50 [2]: 5.47; pIC50 [3]: < 4.28; pIC50 [4]: < 4.30
Cn1c(N2CCN[C@@H](c3ccc(Cl)cc3)C2)nc(-c2ccncn2)cc1=O | 8.92 | –
Cn1c(N2CCNC(c3ccccc3Cl)C2)nc(-c2ccncn2)cc1=O (racemic) | 8.59 | –
COc1cc(F)ccc1C1CN(c2nc(-c3ccncn3)cc(=O)n2C)CCN1Cc1ccccc1 (stereo unspecified) | 6.66 | –
Cn1c(N2CCNC(c3ccccc3)C2)nc(-c2ccncc2)cc1=O (racemic) | 7.74 | –
CCOc1ccccc1C1CN(c2nc(-c3ccncc3)cc(=O)n2C)CCN1 (stereo unspecified) | 7.60 | –
Cn1c(N2CCNC(c3ccccc3F)C2)nc(-c2ccncn2)cc1=O (stereo unspecified) | 8.09 | –
Cn1c(N2CCNC(c3ccccc3Br)C2)nc(-c2ccncn2)cc1=O (racemic) | 8.37 | –
Cn1c(N2CCNC(c3ccc(Cl)cc3)C2)nc(-c2ccncc2)cc1=O (racemic) | 8.18 | –
Cn1c(N2CCNC(c3cccc(Cl)c3)C2)nc(-c2ccncn2)cc1=O (racemic) | 8.96 | –
COc1cc(F)ccc1C1CN(c2nc(-c3ccncn3)cc(=O)n2C)CCN1C (stereo unspecified) | 7.59 | –
Cn1c(N2CCN[C@H](c3ccc(Cl)cc3)C2)nc(-c2ccncn2)cc1=O | 7.59 | –
Cn1c(N2CCNC(c3ccc(Cl)c(Cl)c3)C2)nc(-c2ccncc2)cc1=O (stereo unspecified) | 8.37 | –
Cn1c(N2CCNC(c3ccc(Br)cc3)C2)nc(-c2ccncn2)cc1=O (racemic) | 8.09 | –
COc1cccc(C2CN(c3nc(-c4ccncc4)cc(=O)n3C)CCN2)c1 (racemic) | 7.96 | pIC50 [2]: 6.40; pIC50 [5]: < 4.30; pIC50 [4]: < 4.30
COc1cc(F)ccc1C1CN(c2nc(-c3ccncc3)cc(=O)n2C)CCN1 (single isomer, unassigned; enantiomer 2) | 9.40 | pIC50 [2]: 5.22; pIC50 [3]: < 4.28; pIC50 [4]: < 4.30
COc1ccccc1C1CN(c2nc(-c3ccncn3)cc(=O)n2C)CCN1 (stereo unspecified) | 8.74 | –
Cn1c(N2CCNC(c3ccc(Cl)c(Cl)c3)C2)nc(-c2ccncn2)cc1=O (stereo unspecified) | 8.64 | –
Cn1c(N2CCNC(c3cccc(F)c3)C2)nc(-c2ccncn2)cc1=O (racemic) | 7.92 | –
COc1cc(F)ccc1C1CN(c2nc(-c3ccncc3)cc(=O)n2C)CCN1C(C)=O (stereo unspecified) | 5.77 | –
Cn1c(N2CCNC(c3ccc(F)cc3)C2)nc(-c2ccncn2)cc1=O (racemic) | 8.07 | –
Cn1c(N2CCN[C@H](c3ccc(Cl)cc3)C2)nc(-c2ccncc2)cc1=O | 6.96 | –

SMILES | pIC50 [1] | other results
COc1cc(F)cc(F)c1C1CN(c2nc(-c3ccncn3)cc(=O)n2C)CCN1 (stereo unspecified) | 8.77 | –
Cn1c(N2CCNC(c3ccc(C#N)cc3)C2)nc(-c2ccncn2)cc1=O (racemic) | 8.13 | –
CCOc1ccccc1C1CN(c2nc(-c3ccncn3)cc(=O)n2C)CCN1 (stereo unspecified) | 7.70 | –
Cn1c(N2CCNC(c3ccccc3F)C2)nc(-c2ccncc2)cc1=O (stereo unspecified) | 7.96 | –
COc1ccccc1C1CN(c2nc(-c3ccncc3)cc(=O)n2C)CCN1 (racemic) | 8.74 | pIC50 [2]: > 6.70; pIC50 [5]: < 4.30; pIC50 [4]: < 4.30
COc1cc(F)ccc1C1CN(c2nc(-c3ccncn3)cc(=O)n2C)CCN1 (single isomer, unassigned; enantiomer 2) | 9.60 | pIC50 [2]: 5.04; pIC50 [3]: < 4.28
COc1cc(F)ccc1C1CN(c2nc(-c3ccncn3)cc(=O)n2C)CCN1 (racemic) | 9.14 | pIC50 [2]: 5.57; pIC50 [3]: < 4.28
Cn1c(N2CCNC(c3cccc(F)c3)C2)nc(-c2ccncc2)cc1=O (racemic) | 7.66 | –
COc1cc(F)ccc1C1CN(c2nc(-c3ccncn3)cc(=O)n2C)CCN1C(C)=O (stereo unspecified) | 5.82 | –
Cn1c(N2CCNC(c3ccc(F)cc3)C2)nc(-c2ccncc2)cc1=O (racemic) | 7.74 | –
COc1cccc(C2CN(c3nc(-c4ccncn4)cc(=O)n3C)CCN2)c1 (racemic) | 8.17 | –
Cn1c(N2CCNC(c3ccc(Br)cc3)C2)nc(-c2ccncc2)cc1=O (racemic) | 7.66 | –
COc1cc(F)ccc1C1CN(c2nc(-c3ccncc3)cc(=O)n2C)CCN1C (stereo unspecified) | 7.25 | –
Cn1c(N2CCNC(c3ccc(C#N)cc3)C2)nc(-c2ccncc2)cc1=O (racemic) | 7.82 | –
Cn1c(N2CCNC(c3ccccc3Cl)C2)nc(-c2ccncc2)cc1=O (racemic) | 8.02 | –
COc1ccc(C2CN(c3nc(-c4ccncn4)cc(=O)n3C)CCN2)cc1OC (stereo unspecified) | 8.11 | –
Cn1c(N2CCNC(c3cccc(Cl)c3)C2)nc(-c2ccncc2)cc1=O (racemic) | 8.27 | –
Cn1c(N2CCNC(c3cccc(Br)c3)C2)nc(-c2ccncn2)cc1=O (racemic) | 8.70 | –
COc1ccc(C2CN(c3nc(-c4ccncc4)cc(=O)n3C)CCN2)cc1 (racemic) | 8.33 | pIC50 [6]: < 4.28; pIC50 [3]: < 4.28; pIC50 [7]: 4.35
Cn1c(N2CCNC(c3ccc(Cl)cc3)C2)nc(-c2ccncn2)cc1=O (racemic) | 8.77 | –
Cn1c(N2CCNC(c3ccccc3Br)C2)nc(-c2ccncc2)cc1=O (racemic) | 7.89 | –
COc1cc(F)ccc1C1CN(c2nc(-c3ccncc3)cc(=O)n2C)CCN1 (single isomer, unassigned; enantiomer 1) | 7.27 | pIC50 [2]: 6.00; pIC50 [3]: < 4.28; pIC50 [4]: < 4.30
Cc1cc(F)ccc1C1CN(c2nc(-c3ccncc3)cc(=O)n2C)CCN1 (stereo unspecified) | 7.62 | –
COc1cc(F)cc(F)c1C1CN(c2nc(-c3ccncc3)cc(=O)n2C)CCN1 (stereo unspecified) | 8.70 | –
COc1cc(F)ccc1C1CN(c2nc(-c3ccncc3)cc(=O)n2C)CCN1Cc1ccccc1 (stereo unspecified) | 5.92 | –
